According to PubChem BioAssay (NCI):
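Step 1: Grow cells in 96-well plates. Step 2: Expose to compound for 48 hours at 5 concentrations. Step 3: Interpolate endpoints linearly; if unreached, use highest concentration. GI50: concentration for 50% inhibition of growth. The concentration for full growth arrest is given as TGI.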

What was measured:
Test in all cases: NCI anticancer screen, dose series, 48 h
[1] = system: MDA-MB-468 breast
[2] = system: U251 CNS
[3] = system: HCT-116 colon
[4] = system: MCF7 breast
[5] = system: COLO 205 colon
[6] = system: CAKI-1 renal
[7] = system: SF-268 CNS
[8] = system: SF-295 CNS
[9] = system: SK-MEL-5 melanoma
[10] = system: DU-145 prostate
[11] = system: SF-539 CNS
[12] = system: SNB-75 CNS
[13] = system: NCI-H522 lung
[14] = system: HOP-92 NSCLC
[15] = system: K-562 leukemia
[16] = system: SW-620 colon
[17] = system: SK-MEL-28 melanoma
[18] = system: HCC-2998 colon
[19] = system: T-47D breast
[20] = system: OVCAR-8 ovarian
[21] = system: PC-3 prostate
[22] = system: OVCAR-3 ovarian
[23] = system: ACHN renal
[24] = system: NCI-H460 lung
[25] = system: IGROV1 ovarian
[26] = system: MALME-3M melanoma
[27] = system: SR leukemia
[28] = system: HT29 colon
[29] = system: EKVX NSCLC
[30] = system: 786-0 renal

In the case of `CCCCNC(=S)Nc1ccc(OCc2nc3ccc(Cl)cc3[nH]2)cc1`, the GI50 [1] was 2.45 µM, the TGI [1] was 12.4 µM and the GI50 [2] was 13.1 µM. For the same molecule, the TGI [2] was 26.4 µM, the GI50 [3] was 4.54 µM and the TGI [3] was 19.7 µM. The GI50 [4] was 3.55 µM, the TGI [4] was 18.8 µM and the GI50 [5] was 17 µM. For the same molecule, the TGI [5] was 38.1 µM, the GI50 [6] was 4.42 µM and the TGI [6] was 18.3 µM. For the same molecule, the GI50 [7] was 12.1 µM, the TGI [7] was 27.9 µM and the GI50 [8] was 6.92 µM. For the same molecule, the TGI [8] was 20.6 µM, the GI50 [9] was 11.9 µM and the TGI [9] was 24.5 µM. The GI50 [10] was 12.9 µM, the TGI [10] was 26 µM and the GI50 [11] was 11.5 µM. The TGI [11] was 23.6 µM, the GI50 [12] was 3.48 µM and the TGI [12] was 18.1 µM. It also gave a GI50 [13] of 3.07 µM, a TGI [13] of 14.8 µM and a GI50 [14] of 2.04 µM. It also gave a TGI [14] of 6.43 µM, a GI50 [15] of 3.41 µM and a TGI [15] greater than 100 µM. It also gave a GI50 [16] of 11.9 µM, a TGI [16] of 30.7 µM and a GI50 [17] of 14.3 µM. It also gave a TGI [17] of 27.5 µM, a GI50 [18] of 4.14 µM and a TGI [18] of 17.1 µM. The GI50 [19] was 6.06 µM, the TGI [19] was 20.5 µM and the GI50 [20] was 12.4 µM. It also gave a TGI [20] of 25.9 µM, a GI50 [21] of 3.08 µM and a TGI [21] of 14.5 µM. It also gave a GI50 [22] of 4.65 µM, a TGI [22] of 19 µM and a GI50 [23] of 7.74 µM. For the same molecule, the TGI [23] was 20.4 µM, the GI50 [24] was 10.2 µM and the TGI [24] was 27.8 µM. For the same molecule, the GI50 [25] was 5.3 µM, the TGI [25] was 18.5 µM and the GI50 [26] was 11.6 µM. It also gave a TGI [26] of 23.9 µM, a GI50 [27] of 2.91 µM and a TGI [27] of 17.4 µM. It also gave a GI50 [28] of 10.7 µM, a TGI [28] of 24.6 µM and a GI50 [29] of 7.13 µM. The TGI [29] was 20.2 µM and the GI50 [30] was 2.67 µM.
